Measurements from ChEMBL document CHEMBL3885861, “Open TG-GATES”.

Species: Rattus norvegicus
Experiment: Open TG-GATES - Regimen: Daily Repeat
Assay type: toxicity, organism-based, Sprague-Dawley
Set-up: regimen Daily Repeat, gender Male, age 6 weeks
Conditions: in vivo, iv, route intravenous injection; for gamma-GTP / ALP / ALT / AST / BUN / CRE / DBIL / GLC / IP / K / LDH / PL / RALB / TBIL / TC / TP / TG: tissue Plasma; for APTT / Bas / Eos / Fbg / Hb / Ht / Lym / MCH / MCHC / Mono / Neu / PT / Plat / RBC / Ret / WBC / MCV: tissue Blood; for KIDNEY_L / KIDNEY_R / KIDNEY_TOTAL: tissue Kidney; for LIVER: tissue Liver
[1] = 30 mg/kg, 72 h, dose level Middle, time 3 day
[2] = 30 mg/kg, […], dose level Middle, time 7 day
[3] = 30 mg/kg, […], dose level Middle, time 14 day
[4] = 30 mg/kg, […], dose level Middle, time 28 day
[5] = 100 mg/kg, 72 h, dose level High, time 3 day
[6] = 100 mg/kg, […], dose level High, time 7 day
[7] = 100 mg/kg, […], dose level High, time 14 day
[8] = 100 mg/kg, […], dose level High, time 28 day

## GENTAMICIN
10 mg/kg, […], dose level Low, time 28 day
  gamma-GTP: 2 IU/L
[1]
  TERMINAL_BW: 231.1 g
  APTT: 22 s
  Bas: 0%
  Eos: 1%
  Fbg: 292.8 mg/dL
  Hb: 12.8 g/dL
  Ht: 37.4%
  Lym: 75.4%
  MCH: 21 pg
  MCHC: 34.2%
  Mono: 3.2%
  Neu: 19.8%
  PT: 16.5 s
  Plat: 116.2 x10_4/uL
  RBC: 608.6 x10_4/ul
  Ret: 5.4%
  WBC: 99.7 x10_2/uL
  KIDNEY_L: 1 g
  KIDNEY_R: 1 g
  KIDNEY_TOTAL: 2 g
  ALP: 1568.4 IU/L
  ALT: 38.4 IU/L
  AST: 70.6 IU/L
  BUN: 19 mg/dL
  CRE: 0.2 mg/dL
  DBIL: 0 mg/dL
  GLC: 170.6 mg/dL
  IP: 6.8 mg/dL
  K: 4.7 meq/L
  LDH: 175 IU/L
  PL: 147.8 mg/dL
  RALB: 3 g/dL
  TBIL: 0.008 mg/dL
  TC: 69.2 mg/dL
  TP: 5.4 g/dL
  gamma-GTP: 1.8 IU/L
[2]
  TERMINAL_BW: 256.1 g
  APTT: 24.3 s
  Bas: 0%
  Eos: 1.2%
  Fbg: 303.4 mg/dL
  Ht: 39%
  Lym: 75%
  MCH: 21 pg
  MCHC: 34.7%
  MCV: 60.6 fL
  Mono: 4%
  PT: 15.9 s
  Plat: 111.1 x10_4/uL
  RBC: 644.4 x10_4/ul
  Ret: 4.1%
  WBC: 106.4 x10_2/uL
  KIDNEY_L: 1.1 g
  KIDNEY_R: 1.1 g
  KIDNEY_TOTAL: 2.1 g
  LIVER: 10.8 g
  ALP: 1481.6 IU/L
  ALT: 40.6 IU/L
  BUN: 17 mg/dL
  CRE: 0.2 mg/dL
  DBIL: 0 mg/dL
  GLC: 174.8 mg/dL
  IP: 6.1 mg/dL
  K: 4.5 meq/L
  LDH: 152.6 IU/L
  PL: 146.8 mg/dL
  RALB: 3 g/dL
  TBIL: 0.006 mg/dL
  TC: 72 mg/dL
  TG: 131.4 mg/dL
  TP: 5.6 g/dL
  gamma-GTP: 1.6 IU/L
[3]
  TERMINAL_BW: 289.4 g
  APTT: 22.8 s
  Bas: 0%
  Eos: 0.8%
  Fbg: 296.4 mg/dL
  Ht: 40.3%
  Lym: 81.4%
  MCHC: 35.7%
  MCV: 58.2 fL
  Mono: 2.2%
  Plat: 106 x10_4/uL
  RBC: 693.6 x10_4/ul
  Ret: 3.2%
  WBC: 131.7 x10_2/uL
  KIDNEY_L: 1.2 g
  KIDNEY_R: 1.2 g
  KIDNEY_TOTAL: 2.4 g
  LIVER: 10.8 g
  ALP: 1265.2 IU/L
  ALT: 36.8 IU/L
  AST: 67.6 IU/L
  CRE: 0.2 mg/dL
  DBIL: 0 mg/dL
  GLC: 176.4 mg/dL
  IP: 5.9 mg/dL
  K: 4.3 meq/L
  LDH: 144.8 IU/L
  PL: 140.2 mg/dL
  RALB: 3 g/dL
  TBIL: 0.008 mg/dL
  TC: 68.6 mg/dL
  TG: 114 mg/dL
  TP: 5.7 g/dL
  gamma-GTP: 1.8 IU/L
[4]
  TERMINAL_BW: 356.8 g
  APTT: 23.3 s
  Bas: 0%
  Eos: 0.8%
  Fbg: 308 mg/dL
  Hb: 15.3 g/dL
  Ht: 42.9%
  Lym: 80.4%
  MCH: 19.2 pg
  MCHC: 35.7%
  MCV: 53.7 fL
  Mono: 2.4%
  Plat: 107.2 x10_4/uL
  RBC: 799 x10_4/ul
  Ret: 1.8%
  WBC: 106 x10_2/uL
  KIDNEY_L: 1.5 g
  KIDNEY_R: 1.6 g
  KIDNEY_TOTAL: 3.1 g
  LIVER: 12.3 g
  ALP: 959 IU/L
  ALT: 31 IU/L
  CRE: 0.3 mg/dL
  DBIL: 0.002 mg/dL
  GLC: 176.4 mg/dL
  IP: 5.6 mg/dL
  K: 4.2 meq/L
  LDH: 109.8 IU/L
  PL: 130 mg/dL
  RALB: 3 g/dL
  TBIL: 0.01 mg/dL
  TC: 68.4 mg/dL
  TG: 103 mg/dL
  TP: 5.8 g/dL
  gamma-GTP: 2.2 IU/L
[5]
  TERMINAL_BW: 229.2 g
  APTT: 22 s
  Bas: 0%
  Eos: 1%
  Fbg: 294.4 mg/dL
  Ht: 38.2%
  Lym: 80.8%
  MCH: 21 pg
  MCHC: 34.3%
  MCV: 61.1 fL
  Mono: 3.8%
  Neu: 13%
  PT: 16.5 s
  Plat: 115 x10_4/uL
  RBC: 625.8 x10_4/ul
  Ret: 4.8%
  WBC: 83.9 x10_2/uL
  KIDNEY_L: 1 g
  KIDNEY_R: 1 g
  KIDNEY_TOTAL: 2 g
  LIVER: 10 g
  ALP: 1437 IU/L
  AST: 67.4 IU/L
  CRE: 0.2 mg/dL
  DBIL: 0 mg/dL
  GLC: 170 mg/dL
  IP: 6.8 mg/dL
  K: 4.7 meq/L
  LDH: 137.2 IU/L
  PL: 131.4 mg/dL
  RALB: 3 g/dL
  TBIL: 0.014 mg/dL
  TC: 64.8 mg/dL
  TG: 100 mg/dL
  TP: 5.5 g/dL
  gamma-GTP: 1.4 IU/L
[6]
  TERMINAL_BW: 262.4 g
  APTT: 24.3 s
  Bas: 0%
  Eos: 1.2%
  Fbg: 314.2 mg/dL
  Lym: 77.6%
  MCHC: 34.5%
  MCV: 60.6 fL
  Mono: 4.2%
  Plat: 106.7 x10_4/uL
  RBC: 646.4 x10_4/ul
  Ret: 4.3%
  WBC: 117.3 x10_2/uL
  KIDNEY_L: 1.2 g
  KIDNEY_R: 1.2 g
  KIDNEY_TOTAL: 2.5 g
  LIVER: 10.9 g
  ALP: 1249 IU/L
  ALT: 39.8 IU/L
  AST: 73 IU/L
  CRE: 0.2 mg/dL
  DBIL: 0 mg/dL
  GLC: 182.6 mg/dL
  IP: 6 mg/dL
  K: 4.6 meq/L
  LDH: 158.8 IU/L
  PL: 139.8 mg/dL
  RALB: 3 g/dL
  TBIL: 0.004 mg/dL
  TC: 71 mg/dL
  TG: 91.4 mg/dL
  TP: 5.6 g/dL
  gamma-GTP: 2 IU/L
[7]
  TERMINAL_BW: 275.2 g
  APTT: 23.3 s
  Bas: 0%
  Eos: 1%
  Fbg: 320.8 mg/dL
  Lym: 83%
  MCH: 21.1 pg
  MCHC: 36.2%
  MCV: 58.1 fL
  Mono: 3%
  PT: 16.4 s
  Plat: 114.3 x10_4/uL
  RBC: 701.8 x10_4/ul
  Ret: 1.8%
  WBC: 106.6 x10_2/uL
  KIDNEY_L: 1.5 g
  KIDNEY_R: 1.5 g
  KIDNEY_TOTAL: 3 g
  LIVER: 10.2 g
  ALP: 1114.5 IU/L
  ALT: 33.5 IU/L
  AST: 71.8 IU/L
  BUN: 20 mg/dL
  CRE: 0.3 mg/dL
  DBIL: 0 mg/dL
  IP: 6 mg/dL
  K: 4.2 meq/L
  PL: 148.8 mg/dL
  RALB: 3.1 g/dL
  TBIL: 0.015 mg/dL
  TC: 81.8 mg/dL
  TG: 98.2 mg/dL
  TP: 5.7 g/dL
  gamma-GTP: 2.5 IU/L
[8]
  TERMINAL_BW: 315.6 g
  APTT: 23.9 s
  Bas: 0%
  Eos: 1.2%
  Fbg: 282.2 mg/dL
  Hb: 14.7 g/dL
  Ht: 40.7%
  Lym: 83.5%
  MCH: 19 pg
  MCHC: 36.1%
  MCV: 52.6 fL
  Mono: 2.2%
  Neu: 11.5%
  PT: 16.5 s
  Plat: 118.3 x10_4/uL
  RBC: 773 x10_4/ul
  Ret: 1.3%
  WBC: 112.9 x10_2/uL
  KIDNEY_L: 1.6 g
  KIDNEY_R: 1.7 g
  KIDNEY_TOTAL: 3.3 g
  ALP: 662.5 IU/L
  AST: 67 IU/L
  BUN: 18 mg/dL
  CRE: 0.3 mg/dL
  DBIL: 0 mg/dL
  IP: 5.8 mg/dL
  K: 3.6 meq/L
  LDH: 109.2 IU/L
  PL: 112 mg/dL
  RALB: 3.1 g/dL
  TBIL: 0.03 mg/dL
  TC: 67 mg/dL
  TG: 40 mg/dL
  TP: 5.9 g/dL
  gamma-GTP: 2.5 IU/L
